Data taken from patent EP1247803A2, “Indolinone compounds suitable for modulation of protein kinases” (Sugen, Inc., priority 1996, dated 1998).

The molecules below were run against T1, FLK-1 receptor (Mus musculus, UniProt P35918) (assay: FLK-1 ELISA (kinase activity of the FLK-1 receptor in FLK-1/NIH3T3 cells, VEGF stimulated)).
T1 construct: expressed in transfected cells; host or cells: NIH3T3 C7#3
Assay type: cell-based
Outline: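 NIH3T3 C7#3 cells expressing FLK-1 were seeded at 25.000 cells/well, serum-starved overnight in 0.1% FBS, then treated with compound for two hours at 37°C (final DMSO 0.5%) before VEGF stimulation. Receptor was captured on anti-rabbit IgG-coated ELISA plates bearing affinity-purified anti-FLK-1 antiserum.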

T1 sequence (P35918 20-1345): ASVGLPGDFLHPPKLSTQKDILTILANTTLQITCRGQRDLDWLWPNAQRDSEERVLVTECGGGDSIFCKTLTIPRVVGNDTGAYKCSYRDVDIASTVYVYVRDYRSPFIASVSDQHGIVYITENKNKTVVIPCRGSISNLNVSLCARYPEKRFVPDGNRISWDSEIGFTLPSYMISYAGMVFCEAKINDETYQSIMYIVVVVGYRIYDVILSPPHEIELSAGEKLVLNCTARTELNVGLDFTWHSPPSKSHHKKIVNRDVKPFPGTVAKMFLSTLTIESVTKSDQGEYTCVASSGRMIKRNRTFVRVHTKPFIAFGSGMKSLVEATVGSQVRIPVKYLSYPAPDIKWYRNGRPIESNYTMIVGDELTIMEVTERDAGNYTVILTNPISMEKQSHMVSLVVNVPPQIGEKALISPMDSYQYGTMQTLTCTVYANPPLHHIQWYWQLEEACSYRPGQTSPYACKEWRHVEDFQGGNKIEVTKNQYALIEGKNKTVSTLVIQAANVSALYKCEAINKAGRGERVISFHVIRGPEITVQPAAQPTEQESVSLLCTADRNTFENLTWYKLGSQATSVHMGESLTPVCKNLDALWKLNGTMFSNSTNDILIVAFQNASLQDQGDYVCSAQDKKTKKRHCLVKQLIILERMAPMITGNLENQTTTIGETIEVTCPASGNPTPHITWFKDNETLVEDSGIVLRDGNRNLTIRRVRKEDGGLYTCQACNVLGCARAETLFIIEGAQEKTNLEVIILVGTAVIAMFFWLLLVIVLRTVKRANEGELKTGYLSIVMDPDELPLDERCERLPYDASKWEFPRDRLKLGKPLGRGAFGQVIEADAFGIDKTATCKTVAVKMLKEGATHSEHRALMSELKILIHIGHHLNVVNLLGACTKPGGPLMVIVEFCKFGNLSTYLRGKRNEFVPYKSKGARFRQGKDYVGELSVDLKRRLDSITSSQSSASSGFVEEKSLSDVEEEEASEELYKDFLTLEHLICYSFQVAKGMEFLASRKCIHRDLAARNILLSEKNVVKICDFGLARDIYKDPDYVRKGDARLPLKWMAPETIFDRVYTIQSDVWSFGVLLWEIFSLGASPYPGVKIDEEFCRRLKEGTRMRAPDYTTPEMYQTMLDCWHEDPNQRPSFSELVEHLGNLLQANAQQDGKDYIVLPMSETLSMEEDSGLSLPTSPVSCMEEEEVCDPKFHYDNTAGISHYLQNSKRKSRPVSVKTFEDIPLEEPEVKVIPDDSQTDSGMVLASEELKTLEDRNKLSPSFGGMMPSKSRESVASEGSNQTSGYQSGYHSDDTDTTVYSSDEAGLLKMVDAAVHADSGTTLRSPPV

| Compound | Fik Kinase %Inhibition [%] |
| --- | --- |
| O=C1Nc2c(Br)cc(Br)cc2C1=Cc1cccs1 [10717/A03] | 2.9 |
| CCOc1ccccc1C=C1C(=O)Nc2ccc(S(=O)(=O)NC)cc21 [10717/D02] | 5.1 |
| CNS(=O)(=O)c1ccc2c(c1)C(=Cc1cccs1)C(=O)N2 [10717/D03] | 1.1 |
| CNS(=O)(=O)c1ccc2c(c1)C(=Cc1cccn1C)C(=O)N2 [10717/D04] | -2.1 |
| CNS(=O)(=O)c1ccc2c(c1)C(=Cc1ccc(F)cc1)C(=O)N2 [10717/D05] | -3.8 |
| CNS(=O)(=O)c1ccc2c(c1)C(=Cc1c[nH]c3ccccc13)C(=O)N2 [10717/D06] | 1.0 |
| CNS(=O)(=O)c1ccc2c(c1)C(=Cc1ccc(C)s1)C(=O)N2 [10717/D07] | -8.4 |
| CNS(=O)(=O)c1ccc2c(c1)C(=Cc1ccc(Br)cc1)C(=O)N2 [10717/D08] | 6.8 |
| CNS(=O)(=O)c1ccc2c(c1)C(=Cc1ccc[nH]1)C(=O)N2 [10717/D09] | -55.0 |
| CNS(=O)(=O)c1ccc2c(c1)C(=Cc1c(O)cccc1OC)C(=O)N2 [10717/D10] | -6.0 |
| CNS(=O)(=O)c1ccc2c(c1)C(=Cc1cc(Br)c(O)c(C(C)(C)C)c1)C(=O)N2 [10721/D10] | 23.7 |
| CNS(=O)(=O)c1ccc2c(c1)C(=Cc1cc(C(C)(C)C)c(O)c(C(C)(C)C)c1)C(=O)N2 [10721/D11] | 20.6 |
| Cn1c(C=C2C(=O)Nc3ccc(S(=O)(=O)Nc4ccc(C(F)(F)F)cc4)cc32)nc2ccccc21 [10721/E02] | 17.2 |
| Cn1cc(Cl)c(C=C2C(=O)Nc3ccc(S(=O)(=O)Nc4ccc(C(F)(F)F)cc4)cc32)n1 [10721/E03] | 10.9 |
| Cc1cc(C=C2C(=O)Nc3ccc(S(=O)(=O)Nc4ccc(C(F)(F)F)cc4)cc32)sc1C [10721/E04] | 16.0 |
| O=C1Nc2ccc(S(=O)(=O)Nc3ccc(C(F)(F)F)cc3)cc2C1=Cc1cc2c([nH]1)CCCC2 [10721/E05] | 10.8 |
| O=C1Nc2ccc(S(=O)(=O)Nc3ccc(C(F)(F)F)cc3)cc2C1=Cc1cc([N+](=O)[O-])cc(CCl)c1O [10721/E06] | 40.4 |
| O=C1Nc2ccc(S(=O)(=O)Nc3ccc(C(F)(F)F)cc3)cc2C1=Cc1ccc(Cl)s1 [10721/E07] | 15.6 |
| Cc1cc(C)c(C=C2C(=O)Nc3ccc(S(=O)(=O)Nc4ccc(C(F)(F)F)cc4)cc32)[nH]1 [10721/E08] | 15.7 |

| Compound | Fik Kinase %Inhibition [%] |
| --- | --- |
| CC(C)(C)c1cc(C=C2C(=O)Nc3ccc(S(=O)(=O)Nc4ccc(C(F)(F)F)cc4)cc32)ccc1O [10721/E09] | 36.9 |
| CC(C)(C)c1cc(C=C2C(=O)Nc3ccc(S(=O)(=O)Nc4ccc(C(F)(F)F)cc4)cc32)cc(Br)c1O [10721/E10] | 9.3 |
| CC(C)(C)c1cc(C=C2C(=O)Nc3ccc(S(=O)(=O)Nc4ccc(C(F)(F)F)cc4)cc32)cc(C(C)(C)C)c1O [10721/E11] | 0.7 |
| Cn1c(C=C2C(=O)Nc3ccc(S(=O)(=O)N4CCOCC4)cc32)nc2ccccc21 [10721/F02] | 17.0 |
| Cn1cc(Cl)c(C=C2C(=O)Nc3ccc(S(=O)(=O)N4CCOCC4)cc32)n1 [10721/F03] | 9.1 |
| Cc1cc(C=C2C(=O)Nc3ccc(S(=O)(=O)N4CCOCC4)cc32)sc1C [10721/F04] | 7.4 |
| O=C1Nc2ccc(S(=O)(=O)N3CCOCC3)cc2C1=Cc1cc2c([nH]1)CCCC2 [10721/F05] | 8.1 |
| O=C1Nc2ccc(S(=O)(=O)N3CCOCC3)cc2C1=Cc1cc([N+](=O)[O-])cc(CCl)c1O [10721/F06] | 2.2 |
| O=C1Nc2ccc(S(=O)(=O)N3CCOCC3)cc2C1=Cc1ccc(Cl)s1 [10721/F07] | 4.8 |
| Cc1cc(C)c(C=C2C(=O)Nc3ccc(S(=O)(=O)N4CCOCC4)cc32)[nH]1 [10721/F08] | -6.4 |
| CC(C)(C)c1cc(C=C2C(=O)Nc3ccc(S(=O)(=O)N4CCOCC4)cc32)ccc1O [10721/F09] | 65.2 |
| CC(C)(C)c1cc(C=C2C(=O)Nc3ccc(S(=O)(=O)N4CCOCC4)cc32)cc(Br)c1O [10721/F10] | 49.6 |
| CC(C)(C)c1cc(C=C2C(=O)Nc3ccc(S(=O)(=O)N4CCOCC4)cc32)cc(C(C)(C)C)c1O [10721/F11] | 29.7 |
| Cn1c(C=C2C(=O)Nc3ccc(CCCl)cc32)nc2ccccc21 [10721/G02] | 16.4 |
| Cn1cc(Cl)c(C=C2C(=O)Nc3ccc(CCCl)cc32)n1 [10721/G03] | 12.1 |
| Cc1cc(C=C2C(=O)Nc3ccc(CCCl)cc32)sc1C [10721/G04] | 3.2 |
| O=C1Nc2ccc(CCCl)cc2C1=Cc1cc2c([nH]1)CCCC2 [10721/G05] | -15.1 |
| O=C1Nc2ccc(CCCl)cc2C1=Cc1cc([N+](=O)[O-])cc(CCl)c1O [10721/G06] | 18.9 |
| O=C1Nc2ccc(CCCl)cc2C1=Cc1ccc(Cl)s1 [10721/G07] | 3.3 |

| Compound | Fik Kinase %Inhibition [%] |
| --- | --- |
| Cc1cc(C)c(C=C2C(=O)Nc3ccc(CCCl)cc32)[nH]1 [10721/G08] | 5.4 |
| CC(C)(C)c1cc(C=C2C(=O)Nc3ccc(CCCl)cc32)ccc1O [10721/G09] | 20.4 |
| CC(C)(C)c1cc(C=C2C(=O)Nc3ccc(CCCl)cc32)cc(Br)c1O [10721/G10] | 24.4 |
| CC(C)(C)c1cc(C=C2C(=O)Nc3ccc(CCCl)cc32)cc(C(C)(C)C)c1O [10721/G11] | -7.1 |
| CC(C)(C)c1cc(C=C2C(=O)Nc3c(Br)cc(Br)cc32)cc([N+](=O)[O-])c1O [10722/A02] | 0.8 |
| O=C1Nc2c(Br)cc(Br)cc2C1=Cc1c(O)cc(O)cc1O [10722/A03] | 6.7 |
| O=C1Nc2c(Br)cc(Br)cc2C1=Cc1ccc([N+](=O)[O-])s1 [10722/A04] | 13.4 |
| O=C1Nc2c(Br)cc(Br)cc2C1=Cc1ccc(C(=O)O)cc1 [10722/A05] | 10.5 |
| O=C1Nc2c(Br)cc(Br)cc2C1=Cc1ccc(F)cc1F [10722/A06] | 9.6 |
| Cc1cc(C=C2C(=O)Nc3c(Br)cc(Br)cc32)cc(C)c1O [10722/A07] | 9.4 |
| CC(C)(C)c1cc(C=C2C(=O)Nc3c(Br)cc(Br)cc32)cc(Cl)c1O [10722/A08] | 13.7 |
| O=C1Nc2c(Br)cc(Br)cc2C1=Cc1csc([N+](=O)[O-])c1 [10722/A09] | 7.3 |
| CCCCN(CCCC)c1ccc(C=C2C(=O)Nc3c(Br)cc(Br)cc32)cc1 [10722/A10] | 6.6 |
| O=C1Nc2c(Br)cc(Br)cc2C1=Cc1ccc(C(F)(F)F)cc1 [10722/A11] | 6.7 |
| CC(C)(C)c1cc(C=C2C(=O)Nc3ccc(I)cc32)cc([N+](=O)[O-])c1O [10722/B02] | 10.1 |
| O=C1Nc2ccc(I)cc2C1=Cc1c(O)cc(O)cc1O [10722/B03] | 13.6 |
| O=C1Nc2ccc(I)cc2C1=Cc1ccc([N+](=O)[O-])s1 [10722/B04] | 14.7 |
| O=C1Nc2ccc(I)cc2C1=Cc1ccc(C(=O)O)cc1 [10722/B05] | 18.5 |
| O=C1Nc2ccc(I)cc2C1=Cc1ccc(F)cc1F [10722/B06] | 13.9 |
